Results published in paper PMC4128814, “A High Throughput Screen Identifies Potent and Selective Inhibitors to Human Epithelial 15-Lipoxygenase-2” (PLoS ONE, 2014).
pIC50: −log10 of the molar value.

Experiments:
Assay type in all cases: biochemical
12-LOX = molecular target: T1, 12-LOX (Homo sapiens, UniProt P18054); assay: Lipoxygenase UV-Vis assay, 12-LOX; conditions: estimated from one inhibitor point at 20 µM; 10 µM AA
T1 construct: His6 (N); made in house
T1 sequence (P18054 1-663): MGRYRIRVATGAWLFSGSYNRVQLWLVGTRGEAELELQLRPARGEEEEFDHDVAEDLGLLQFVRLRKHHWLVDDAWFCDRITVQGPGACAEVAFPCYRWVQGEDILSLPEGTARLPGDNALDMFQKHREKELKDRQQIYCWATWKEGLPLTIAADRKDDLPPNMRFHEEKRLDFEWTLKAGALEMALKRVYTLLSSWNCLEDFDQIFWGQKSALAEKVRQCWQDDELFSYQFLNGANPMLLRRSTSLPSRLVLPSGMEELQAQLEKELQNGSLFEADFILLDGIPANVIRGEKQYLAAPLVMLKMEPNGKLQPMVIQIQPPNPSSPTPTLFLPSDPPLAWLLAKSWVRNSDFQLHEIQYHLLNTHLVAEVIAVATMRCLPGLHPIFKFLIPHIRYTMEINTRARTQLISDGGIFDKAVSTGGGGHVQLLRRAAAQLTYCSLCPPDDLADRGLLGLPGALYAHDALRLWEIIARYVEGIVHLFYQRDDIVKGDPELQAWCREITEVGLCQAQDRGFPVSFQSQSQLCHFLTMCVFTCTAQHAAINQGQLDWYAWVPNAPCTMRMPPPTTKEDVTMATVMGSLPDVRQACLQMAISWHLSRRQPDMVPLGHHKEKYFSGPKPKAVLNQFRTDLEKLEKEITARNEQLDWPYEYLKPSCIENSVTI
Method: (§1) Human leukocyte 5-lipoxygenase (5-LOX) was expressed as a non-tagged protein and used as a crude ammonium sulfate protein fraction, as published previously, [20].
(§2) The reactions were initiated by adding 200 nM 15-LOX-2, 30 nM 12-LOX, 40 nM 15-LOX-1, or approximately 100–300 nM (5–10 µL) of 5-LOX crude extract to a cuvette with 2 mL reaction buffer, constantly stirred using a magnetic stir bar at room temperature (22°C). Reaction buffers used for various LOX isozymes were as follows: 25 mM HEPES (pH 7.3), 0.3 mM CaCl2, 0.1 mM EDTA, 0.2 mM ATP, 0.01% Triton X-100, 10 µM AA for the crude, ammonium sulfate precipitated 5-LOX; and 25 mM HEPES (pH 7.5), 0.01% Triton X-100, 10 µM AA for 15-LOX-2, 15-LOX-1, and 12-LOX. The substrate concentration was quantitatively determined by allowing the enzymatic reaction to go to completion in the presence of 15-LOX-2. […] The data were then plotted against inhibitor concentration, followed by a hyperbolic saturation curve fit (assuming total enzyme concentration [E]≪IC50). […] All inhibitors were stored at −20°C in DMSO. NDGA was utilized as positive control for the selectivity assays for the various LOX isozymes.

human recombinant COX-2 = molecular target: T2, human recombinant COX-2 (Homo sapiens, UniProt P35354); assay: Cyclooxygenase assay (oxygen electrode), COX-2; conditions: estimated from one inhibitor point at 20 µM; 100 µM AA
T2 construct: purchased Cayman Chemical
T2 sequence (P35354 18-604): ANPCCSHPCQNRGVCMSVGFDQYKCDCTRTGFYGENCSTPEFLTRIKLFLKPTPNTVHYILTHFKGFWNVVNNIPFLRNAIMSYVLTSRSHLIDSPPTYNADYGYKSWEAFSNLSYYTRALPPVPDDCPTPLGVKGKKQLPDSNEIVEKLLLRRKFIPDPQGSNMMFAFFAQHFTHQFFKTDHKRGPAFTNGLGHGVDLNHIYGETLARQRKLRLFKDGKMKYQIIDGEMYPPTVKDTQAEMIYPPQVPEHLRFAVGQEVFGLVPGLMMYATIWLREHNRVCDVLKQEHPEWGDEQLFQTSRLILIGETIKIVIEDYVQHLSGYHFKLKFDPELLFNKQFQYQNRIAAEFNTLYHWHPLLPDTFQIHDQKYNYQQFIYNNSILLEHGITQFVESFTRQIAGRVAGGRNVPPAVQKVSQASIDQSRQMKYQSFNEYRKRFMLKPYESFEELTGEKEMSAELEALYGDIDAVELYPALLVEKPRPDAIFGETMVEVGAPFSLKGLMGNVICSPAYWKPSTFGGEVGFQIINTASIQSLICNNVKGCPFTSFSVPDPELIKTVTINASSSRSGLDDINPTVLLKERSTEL
Method: Cyclooxygenase activity assay was performed as previously described. Approximately 3 µg of either ovine COX-1 (COX-1) or human recombinant COX-2 (COX-2) (Cayman Chemical) were added to buffer containing 0.1 M Tris-HCl buffer (pH 8.0), 5 mM EDTA, 2 mM phenol and 1 µM hematin at 37°C. The selected inhibitors were added to the reaction cell, followed by an incubation of 5 minutes with either of the COX enzymes. The reaction was then initiated by adding 100 µM AA in the reaction cell, as indicated in enzymatic protocol (Cayman Chemicals). Data were collected using a Hansatech DW1 oxygen electrode and the consumption of oxygen was recorded. Indomethacin and the solvent (DMSO), were used as positive and negative controls, respectively, and the percent inhibition of the enzyme was calculated by comparing the rates of the samples to the controls.

5-LOX = molecular target: T3, 5-LOX (Homo sapiens, UniProt P09917); assay: Lipoxygenase UV-Vis assay, 5-LOX crude extract; conditions: estimated from one inhibitor point at 20 µM; 10 µM AA
T3 construct: made in house
T3 sequence (P09917 1-674): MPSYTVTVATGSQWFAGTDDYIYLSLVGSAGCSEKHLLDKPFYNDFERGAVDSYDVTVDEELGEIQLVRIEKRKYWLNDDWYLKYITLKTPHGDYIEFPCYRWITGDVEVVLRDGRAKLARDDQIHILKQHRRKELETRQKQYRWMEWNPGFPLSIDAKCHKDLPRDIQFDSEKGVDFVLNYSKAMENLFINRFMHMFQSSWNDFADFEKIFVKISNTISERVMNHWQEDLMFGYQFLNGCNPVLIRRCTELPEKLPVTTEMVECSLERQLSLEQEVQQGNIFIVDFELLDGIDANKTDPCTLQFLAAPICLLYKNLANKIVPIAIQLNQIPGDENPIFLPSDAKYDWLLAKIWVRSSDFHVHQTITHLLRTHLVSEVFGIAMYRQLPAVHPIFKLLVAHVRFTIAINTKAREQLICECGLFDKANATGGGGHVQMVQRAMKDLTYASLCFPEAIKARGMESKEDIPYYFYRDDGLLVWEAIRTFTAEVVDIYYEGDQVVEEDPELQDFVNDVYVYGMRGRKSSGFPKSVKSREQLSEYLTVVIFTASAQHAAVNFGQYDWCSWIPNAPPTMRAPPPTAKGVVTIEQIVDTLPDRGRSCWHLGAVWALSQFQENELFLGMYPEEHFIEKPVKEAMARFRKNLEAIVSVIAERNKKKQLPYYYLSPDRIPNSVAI
Method: as §1, §2

SMILES | pIC50 (12-LOX) | pIC50 (human recombinant COX-2) | pIC50 (5-LOX)
Clc1ccc(-c2nnc(C3CCCCC3)o2)cc1 [MLS000545091] | < 4.00 | < 4.00 | < 4.30
Cc1ccc(CSc2ncn(-c3ccccc3)n2)cc1 [MLS000536924] | < 4.00 | < 4.00 | < 4.00
